How the values were obtained:
[1] = biological target: 5-hydroxytryptamine receptor 1B (Homo sapiens, UniProt P28222)
[2] = biological target: 5-hydroxytryptamine receptor 1D (Homo sapiens, UniProt P28221)
Sequence of 5-hydroxytryptamine receptor 1D (P28221 whole entry): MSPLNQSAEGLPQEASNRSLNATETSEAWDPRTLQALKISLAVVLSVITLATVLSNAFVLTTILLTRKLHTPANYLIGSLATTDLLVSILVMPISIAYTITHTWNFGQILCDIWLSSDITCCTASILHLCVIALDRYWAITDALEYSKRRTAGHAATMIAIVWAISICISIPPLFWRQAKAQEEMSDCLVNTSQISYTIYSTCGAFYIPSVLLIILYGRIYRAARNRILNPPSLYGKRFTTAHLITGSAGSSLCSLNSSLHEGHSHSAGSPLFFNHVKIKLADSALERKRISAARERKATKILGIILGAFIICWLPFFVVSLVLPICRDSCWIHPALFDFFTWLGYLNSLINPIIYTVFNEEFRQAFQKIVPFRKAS

Sequence of 5-hydroxytryptamine receptor 1B (P28222 whole entry): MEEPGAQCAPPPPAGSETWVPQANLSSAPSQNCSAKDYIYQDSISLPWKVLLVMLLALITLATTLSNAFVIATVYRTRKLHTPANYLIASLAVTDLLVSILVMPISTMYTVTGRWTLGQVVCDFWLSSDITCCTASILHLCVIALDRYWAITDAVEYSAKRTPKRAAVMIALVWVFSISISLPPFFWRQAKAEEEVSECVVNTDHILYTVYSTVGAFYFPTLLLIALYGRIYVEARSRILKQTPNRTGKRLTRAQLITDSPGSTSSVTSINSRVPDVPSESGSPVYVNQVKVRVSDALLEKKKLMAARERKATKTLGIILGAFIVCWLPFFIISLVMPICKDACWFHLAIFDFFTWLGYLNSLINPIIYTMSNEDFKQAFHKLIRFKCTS

## CCCN(CCC)CCc1c[nH]c2ccc(C(N)=O)cc12 [NN-DIPROP-5-CT]
[1]
  Ki: 13 nM
[2]
  Ki: 42 nM

## COc1cc(N)c(Cl)cc1C(=O)NC1CN2CCC1CC2 (centres undefined) [ZACOPRIDE,R]
[1]
  Ki: > 10000 nM
[2]
  Ki: > 10000 nM

## CC[C@@H](CO)NC(=O)[C@@H]1C=C2c3cccc4c3c(cn4C)C[C@H]2N(C)C1
[1]
  Ki: 3.6 nM
[2]
  Ki: 25 nM

## c1ccc2c(N3CCNCC3)cccc2c1
[2]
  Ki: 12 nM

## CN1C[C@H](CO)C=C2c3cccc4[nH]cc(c34)C[C@H]21
[1]
  Ki: 0.63 nM
[2]
  Ki: 1.19 nM

## O=C(CCCN1CCC2(CC1)C(=O)NCN2c1ccccc1)c1ccc(F)cc1 [8-[4-(4-fluorophenyl)-4-oxidanylidene-butyl]-1-phenyl-1,3,8-triazaspiro[4.5]decan-4-one]
[1]
  Ki: 995 nM
[2]
  Ki: > 10000 nM

## Clc1cccc(N2CCNCC2)c1 [mCPP]
[1]
  Ki: 216 nM
[2]
  Ki: 361 nM

## c1ccc2nc(N3CCNCC3)ccc2c1 [2-Piperazin-1-yl-quinoline (Quipazine)]
[1]
  Ki: 1000 nM
[2]
  Ki: 1000 nM

## CC(C)NCC(O)COc1cccc2[nH]ccc12 (centres undefined) [LB-46]
[1]
  Ki: 4100 nM
[2]
  Ki: 4900 nM

## Cc1[nH]c2ccc(O)cc2c1CCN
[1]
  Ki: 915 nM
[2]
  Ki: 860 nM

From BindingDB's records for doi:10.1073/pnas.89.8.3630 (Synaptic Pharmaceutical, 1992)
